Each structure is given as a SMILES string.

What is called melting point is the temperature, or range, at which the solid turns liquid.

The molecule `Cc1oc(C(C)(C)C)cc1C(=O)O` displayed a melting point of 92 °C. In the case of `CC1NC(C(=O)O)C(C)(C)S1` (mixture of isomers) it was 166 to 168 °C. `Cc1ccc2ccc(C)cc2c1`: the melting point turned out to be 97 °C.

The molecule `NC(=O)C1(N2CCCCC2)CCNCC1` gave a melting point of 129 to 132 °C. In the case of `O=C(O)CN(CCO)CCN(CC(=O)O)CC(=O)O` it was 212 to 214 °C. Under `CS(=O)(=O)c1ccc(OC(F)(F)F)cc1` stands 67 °C; under `NC(=O)C#CC(N)=O`, 238 °C. Under `O=Cc1csc(-c2ccccc2)n1` stands 51 to 52 °C. `CCCCCCCCCCCCOc1ccc(C=O)cc1OCCCCCCCCCCCC` showed a melting point of 70 to 73 °C. In the case of `COC(=O)CCC(C)C1CCC2C3C(=O)C(Br)C4CCCCC4(C)C3CCC12C` (centres undefined) it was 123 to 124 °C; in that of `Cc1cc(Cl)cc(Cl)c1S(N)(=O)=O`, 168 to 170 °C; in that of `O=C1CC(=O)NCCNCCNCCNC(=O)CC(=O)NCCNCCNCCN1`, 199 to 202 °C. Under `CCOC(=O)Nc1ccc(Cl)cc1` stands 64 to 66 °C; under `O=C(O)c1ccc([N+](=O)[O-])cc1F`, 174 °C. In the case of `O=C(Nc1ccccc1)C1Cc2ccccc21` (centres undefined) it was 161 °C; in that of `NC(=S)NC(N)=S`, 181 to 183 °C. Regarding `Cc1ccccc1P(c1ccccc1)c1ccccc1`, the melting point was found to be 72 °C. Under `O=C(NCc1ccccn1)c1cc([N+](=O)[O-])cc([N+](=O)[O-])c1` stands 120 °C. Under `NC(=O)C1CO1` (centres undefined) stands 33 °C. Under `COC(=O)N/C=C/c1ccccc1[N+](=O)[O-]` stands 146 to 148 °C. Molecule `CC(=O)Oc1cc(C(F)(F)F)ccc1C(=O)O` displayed a melting point of 121 °C. In the case of `Cc1ccccc1CP(=O)(O)O` it was 195 to 196 °C. Under `OCc1cccc2[nH]ccc12` stands 67 to 68 °C; under `ON=C(CBr)c1ccc(F)cc1`, 84 to 90 °C.

Take `CCCCC(CC)CN` (centres undefined): the melting point is -76 °C. In the case of `Clc1ccc(-c2c(Cl)cc(Cl)cc2Cl)cc1` it was 65 °C; in that of `C=CC1(C)OC(=O)N(c2cc(Cl)cc(Cl)c2)C1=O` (centres undefined), 108 °C; in that of `O=[N+]([O-])c1ccc(OCCBr)cc1`, 64 °C. Under `COC(=O)c1ccc(OCNC(=O)c2ccccc2)cc1` stands 142 to 143 °C; under `CC(=O)Nc1ccc(C)cc1C`, 129 °C; under `CC1C(c2ccc(Cl)cc2)SC(=O)N1C(=O)NC1CCCCC1` (centres undefined), 108 °C.

Regarding `N#Cc1ccc(C[C@H](NC(=O)OCC2c3ccccc3-c3ccccc32)C(=O)O)cc1`, the melting point was found to be 189 °C. In the case of `CC(C)COC(=O)c1ccc(N)cc1` it was 64.5 °C; in that of `OC1(c2ccccc2)c2ccccc2Oc2ccccc21`, 158 to 162 °C.

`CCN(Cc1c(F)cccc1Cl)c1c([N+](=O)[O-])cc(C(F)(F)F)cc1[N+](=O)[O-]` displayed a melting point of 102 °C. For `Cn1c(/C(C#N)=C/c2ccc(F)cc2)nc2ccccc21`, the melting point is 133 °C.

Molecule `CNc1ccc(C(=O)OC)cc1` yielded a melting point of 95 °C. Under `Fc1ccc(C=Nc2n[nH]c(N=Cc3ccc(F)cc3)c2Cc2ccc(Cl)cc2)cc1` stands 223 to 225 °C; under `O=c1[nH]c(-c2ccccc2)cc2ccncc12`, 239 °C. Molecule `O=C(O)c1cccc(-c2ccsc2)c1` gave a melting point of 177 to 179 °C. Under `NC(=S)C(N)=S` stands 170 °C; under `C[C@H](O)c1ccccc1Br`, 56 to 58 °C; under `CC1(C)C=[N+]([O-])C(C)(C)N1O`, 160 to 163 °C.

Consider `CCN(CC)C(=O)C1C=C2c3cccc4[nH]c(Br)c(c34)CC2N(C)C1` (centres undefined), for which the melting point is 124 °C. Under `O=C(C1=NOC2C(=O)N(c3ccc(Cl)cc3)C(=O)C12)c1ccc(Cl)cc1` (centres undefined) stands 152 °C; under `COC(=O)c1cc(C)n(CN(Cn2nc(C(=O)OC)cc2C)c2ccccc2)n1`, 124 to 126 °C; under `COc1ccc(C2(C)CCc3oc4ccccc4c3-c3oc(C)cc32)cc1` (centres undefined), 145 °C.

Regarding `NC(=S)c1ccc(C2SCCS2)cc1`, the melting point was found to be 174 °C. `Cc1cccc(O)n1`: the melting point was 159 °C. In the case of `C=C1C(C)CCC2(C)C3=C(C(=O)C4(CC4C)C(O)C3=O)C(O)C(O)C12` (centres undefined) it was 194 °C; in that of `CC1CCC2C1C1C(CCC2(C)O)C1(C)C` (centres undefined), 105 °C. In the case of `S=C(SN1CCOCC1)N1CCOCC1` it was 139 °C. Under `O=C1NC(=S)NC(=O)C1=NNc1ccccc1` stands 290 °C; under `O=C(O)c1cc(F)c(F)c(F)c1F`, 88 to 89 °C.

Turning to `Brc1c2ccccc2c(Br)c2ccccc12`, the melting point is 226 °C. In the case of `O=S(=O)(Cl)c1cccc(Cl)c1` it was 21 °C; in that of `Clc1ccc(Cl)c(CBr)c1`, 41 °C; in that of `O=C(O)C1=CCCCC1`, 38 °C. In the case of `Cc1ccccc1[N+](=O)[O-]` it was -4 °C. Under `NC(=S)c1ccc(Oc2ccc(C(F)(F)F)cn2)cc1` stands 175 to 178 °C; under `Cc1ccc(C=CC(=O)c2cccc([N+](=O)[O-])c2)cc1`, 143 to 146 °C.

For `CCOC(=O)[C@@H]1CC=CC[C@@H]1N` (relative stereo), the melting point is 99 to 103 °C. In the case of `COc1ccc(C(C)=O)cc1F` it was 92 °C; in that of `CN(C)C(=O)COC(=O)c1ccccc1`, 81.5 °C. Take `O=Cc1cc(C(=O)O)ccc1F`: the melting point was 152 to 153 °C. Under `Cc1noc(C)c1C=O` stands 35 to 38 °C; under `O=S(=O)(Cl)c1cccc(S(=O)(=O)Cl)c1`, 59 °C; under `COc1cccc(C=C2C(=O)NN=C2c2c(O)c3ccccc3n(C)c2=O)c1`, 254 °C.

Consider `O=C(CCC(O)c1ccccc1)c1ccccc1` (centres undefined), for which the melting point came to 95 °C. Under `Cc1cc(C(C)(C)C)cc(C(C)(C)C)c1O` stands 51 °C. Under `CCOc1ccc([C@]2(C(=O)N3CCC[C@H](C)[C@@H]3C)CC2(Cl)Cl)cc1` stands 160 °C.

In turn, `O=C(OCc1ccccc1)ON1C(=O)CCC1=O` showed a melting point of 80 °C.

For the molecule `CC(=C\OC(=O)c1ccccc1)/C(C)=N/OC(=O)c1ccccc1`, the melting point was in the range of 231 to 232 °C. Under `CCC(/C(=N/Nc1ccc([N+](=O)[O-])cc1[N+](=O)[O-])c1ccc(OC)cc1)C1CCCCC1` (centres undefined) stands 200 to 201 °C; under `Fc1cc(Br)cc(Br)c1Br`, 30 to 34 °C; under `CCN1C(=O)C(=Cc2coc3ccc(Cl)cc3c2=O)SC1=S`, 231 to 233 °C. In the case of `CCCOCCO`, the melting point was -70 °C. Under `O=C1c2ccccc2-c2ccc3c4c(ccc1c24)-c1ccccc1C3=O` stands 385 °C; under `ON=C1CCCCCCC1`, 37 °C.

For the origin of these results see a melting point compilation (Tetko et al.).
